# Assay results published in US10711036B2, “MALT1 inhibitors and uses thereof” (Cornell University, priority 2015, dated 2020).
# *1 amine or outer side, *2 acyl side, *3 side chain or, on linkers, in order; H or OH if unused. Where a SMILES comes first, the peptide text is derived from it. [ ]: non-standard residue; d: D form. The star is where a group is joined. ξ: configuration not given here. cisHyp = O=C(O)[C@@H]1C[C@H](O)CN1; Hydrocinnamoyl = O=C(CCc1ccccc1)*; Hyp = O=C(O)[C@@H]1C[C@@H](O)CN1; Ile(3ξ) = CCC(C)[C@H](N)C(=O)O; Chg = N[C@H](C(=O)O)C1CCCCC1; Tle = CC(C)(C)[C@H](N)C(=O)O; NMeV = CN[C@H](C(=O)O)C(C)C; Pip = O=C(O)[C@@H]1CCCCN1; Ac5c = NC1(C(=O)O)CCCC1; Cbz = O=C(OCc1ccccc1)*; CO = O=C([*:1])[*:2]; NHPh = c1ccc(N*)cc1; CH2F = FC*
# How the values were obtained:
# MALT1 = MALT1 (Homo sapiens (Human), UniProt Q9UDY8); test: Inhibition constants (Ki) for inhibition of MALT1; type: biochemical; details: 100 nM MALT1 used for the assay
# MALT1, sequence (Q9UDY8 whole entry): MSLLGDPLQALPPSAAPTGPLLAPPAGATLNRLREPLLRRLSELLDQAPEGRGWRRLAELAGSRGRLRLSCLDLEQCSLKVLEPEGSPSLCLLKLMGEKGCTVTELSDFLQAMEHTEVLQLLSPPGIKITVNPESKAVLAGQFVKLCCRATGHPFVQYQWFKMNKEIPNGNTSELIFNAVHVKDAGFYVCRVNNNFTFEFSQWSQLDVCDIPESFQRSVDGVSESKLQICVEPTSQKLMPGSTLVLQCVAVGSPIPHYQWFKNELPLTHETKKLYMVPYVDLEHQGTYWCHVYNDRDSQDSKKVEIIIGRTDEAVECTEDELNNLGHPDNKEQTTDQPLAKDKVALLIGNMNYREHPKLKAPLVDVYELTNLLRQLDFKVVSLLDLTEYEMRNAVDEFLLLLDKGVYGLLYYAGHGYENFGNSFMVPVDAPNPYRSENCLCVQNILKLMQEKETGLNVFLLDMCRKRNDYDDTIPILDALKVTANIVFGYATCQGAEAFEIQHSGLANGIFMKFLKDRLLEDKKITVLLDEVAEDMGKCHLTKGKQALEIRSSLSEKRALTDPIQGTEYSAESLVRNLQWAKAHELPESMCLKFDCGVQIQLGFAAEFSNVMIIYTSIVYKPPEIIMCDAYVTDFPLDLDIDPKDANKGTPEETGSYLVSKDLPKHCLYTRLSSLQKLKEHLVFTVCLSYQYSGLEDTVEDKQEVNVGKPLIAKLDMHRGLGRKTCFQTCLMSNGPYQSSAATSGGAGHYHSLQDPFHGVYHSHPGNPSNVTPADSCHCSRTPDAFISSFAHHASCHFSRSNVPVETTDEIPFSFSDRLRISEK
# Description: For exemplary compounds of the disclosure, Ki for inhibition of MALT1 was measured (Table E11). A concentration of 100 nM MALT1 was used for the assay.
# OCI-LY3 [1] = test: Cell growth inhibition assay (CellTiter-Glo, 96 hours), OCI-LY3; type: cell-based, human; details: OCI-LY3 cells, treated at t=0 and t=48 hours, ATP luminescence
# Description: DLBCL cell lines were grown in exponential growth conditions during the 96 hours of treatment. Cells were treated twice: at t=0 and t=48 hours, and cell viability was determined by ATP quantification using a luminescent method ([…]-GLO, Promega, Madison, Wis.). Cell viability in drug-treated cells was normalized to vehicle controls (fractional viability) and results are given as 1-fractional viability.
# Experiments were Performed in Triplicate.
# OCI-LY3 [2] = test: Maximum killing effect on OCI-LY3; type: cell-based, human
# Description: (§1) The maximum killing effects on cell-lines OCI-LY3, TMD8, and OCI-LY1 were also measured for select compounds at inhibitor concentration of 20 μM and 5 μM. TMD8 is another line of ABC type diffuse large-B cell lymphoma, while OCI-LY1 is a DLBCL line of the germinal center B-cell subtype.
# TMD8 = test: Maximum killing effect on TMD8; type: cell-based
# Description: as §1
# OCI-LY1 = test: Maximum killing effect on OCI-LY1; type: cell-based
# Description: as §1
# RelB cleavage = test: Western blot for RelB cleavage in OCI-LY3 cells; type: cell-based, human; details: OCI-LY3 cells pretreated with inhibitor, then 5 μM MG-132 for 2 hours
# Description: FIG. 1A. Western blots for RelB and MALT1 after 30 minutes pretreatment with indicated doses of compounds or vehicle, followed by proteasome inhibitor MG-132 (5 μM) treatment for 2 hours in OCI-LY3. clev=cleavage product of RelB.
# FIG. 1B. Western blots for RelB with indicated doses of compounds or vehicle in OCI-LY3.
# Western blot: OCI-Ly3 cells (a line of human diffuse large B-cell lymphoma (ABC type)) were pre-treated for 30 minutes with indicated doses of MALT1 inhibitors followed by a 2-hour treatment with proteasome inhibitor MG-132 at 5 μM. Protein was then extracted in a PBS-based lysis buffer containing 1% NP-40. Equal amounts of total protein (50 to 75 μg) were separated on sodium dodecyl sulfate-polyacrylamide gel electrophoresis (SDS-PAGE), and electrotransferred onto nitrocellulose membranes. Membranes were incubated with primary antibodies (MALT1, from Santa Cruz Biotechnologies, Santa Cruz, Calif.; RELB from Cell Signaling, Danvers, Mass., and α-Tubulin from Sigma), followed by secondary antibodies conjugated to horseradish peroxidase, which were detected by chemiluminescence (Pierce, Thermo Scientific, Rockford, Ill.).
# OCI-LY3 cells were pretreated with the an inhibitor at the desired concentration and subsequently treated with 5 μM MG-132, a proteasome inhibitor, for 2 hours.
Ki (MALT1) [nM],GI50 (OCI-LY3 [1]; Homo sapiens) [nM],SMILES,also measured
40,730,CC(C)[C@H](NC(=O)OCc1ccccc1)C(=O)N1CCCC[C@H]1C(=O)N[C@@H](CCCNC(=N)N)C(=O)CF [Compound 107] (Cbz-Val-[Pip]-Arg-CH2F),"Maximum killing effect (OCI-LY3 [2]; OCI-LY3, 5 μM): 38%; Maximum killing effect (OCI-LY3 [2]; OCI-LY3, 20 μM): 85%; Maximum killing effect (TMD8; TMD8, 5 μM): 29%; Maximum killing effect (TMD8; TMD8, 20 μM): 58%; Maximum killing effect (OCI-LY1; OCI-LY1, 5 μM): 3%; Maximum killing effect (OCI-LY1; OCI-LY1, 20 μM): 11%; Inhibition of RelB cleavage (Western blot) (RelB cleavage): inhibition of RelB cleavage"
41,530,CC(C)[C@H](NC(=O)c1cccc(Br)c1)C(=O)N1CCC[C@H]1C(=O)N[C@@H](CCCNC(=N)N)C(=O)CF [Compound 115],"Maximum killing effect (OCI-LY3 [2]; OCI-LY3, 20 μM): 84%; Maximum killing effect (TMD8; TMD8, 20 μM): 64%; Maximum killing effect (OCI-LY1; OCI-LY1, 20 μM): 15%"
105,4240,CC(C)[C@H](NC(=O)c1ccccc1Br)C(=O)N1CCC[C@H]1C(=O)N[C@@H](CCCNC(=N)N)C(=O)CF [Compound 114],"Maximum killing effect (OCI-LY3 [2]; OCI-LY3, 20 μM): 80%; Maximum killing effect (TMD8; TMD8, 20 μM): 40%; Maximum killing effect (OCI-LY1; OCI-LY1, 20 μM): 9%"
44,1450,N=C(N)NCCC[C@H](NC(=O)[C@@H]1CCCN1C(=O)[C@@H](NC(=O)OCc1ccccc1)C1CCCCC1)C(=O)CF [Compound 102] (Cbz-[Chg]-Pro-Arg-CH2F),"Maximum killing effect (OCI-LY3 [2]; OCI-LY3, 20 μM): 85%; Maximum killing effect (TMD8; TMD8, 20 μM): 54%; Maximum killing effect (OCI-LY1; OCI-LY1, 20 μM): 19%"
55,4260,N=C(N)NCCC[C@H](NC(=O)[C@@H]1CCCN1C(=O)[C@@H](NC(=O)OCc1ccccc1)c1cccnc1)C(=O)CF [Compound 105],
50,70,CC(C)[C@H](NC(=O)c1ccc(Br)cc1)C(=O)N1C[C@H](O)C[C@H]1C(=O)N[C@@H](CCCNC(=N)N)C(=O)CF [Compound 171],
109,7290,COc1ccccc1C(=O)N[C@H](C(=O)N1CCC[C@H]1C(=O)N[C@@H](CCCNC(=N)N)C(=O)CF)C(C)C [Compound 121],
448,1370,N=C(N)NCCC[C@H](NC(=O)[C@@H]1CCCN1C(=O)[C@H](Cc1ccc(C(F)(F)F)cc1)NC(=O)c1ccc(Br)cc1)C(=O)CF [Compound 186],
52,1520,CC(C)[C@H](NC(=O)Nc1ccccc1)C(=O)N1CCC[C@H]1C(=O)N[C@@H](CCCNC(=N)N)C(=O)CF [Compound 129] ({NHPh-CO}-Val-Pro-Arg-CH2F),
45,980,CC(C)[C@H](NC(=O)c1ccc(C(C)(C)C)cc1)C(=O)N1CCC[C@H]1C(=O)N[C@@H](CCCNC(=N)N)C(=O)CF [Compound 162],
40,3880,CC(C)[C@H](NC(=O)c1cnc2ccccc2c1)C(=O)N1CCC[C@H]1C(=O)N[C@@H](CCCNC(=N)N)C(=O)CF [Compound 156],
121,1750,CC(C)[C@H](NC(=O)c1ncc(-c2ccccc2)s1)C(=O)N1CCC[C@H]1C(=O)N[C@@H](CCCNC(=N)N)C(=O)CF [Compound 139],
1180,4310,N=C(N)NCCC[C@H](NC(=O)[C@@H]1CCCN1C(=O)C1(NC(=O)OCc2ccccc2)CCCC1)C(=O)CF [Compound 181] (Cbz-[Ac5c]-Pro-Arg-CH2F),
60,6660,CC(C)[C@H](NC(=O)c1ccc(C#N)cc1)C(=O)N1CCC[C@H]1C(=O)N[C@@H](CCCNC(=N)N)C(=O)CF [Compound 126],
75,> 20000,CC(C)[C@H](NC(=O)c1ccc(N2CCOCC2)cc1)C(=O)N1CCC[C@H]1C(=O)N[C@@H](CCCNC(=N)N)C(=O)CF [Compound 127],
58,14500,CC(C)[C@H](NC(=O)c1cccc(N2CCOCC2)c1)C(=O)N1CCC[C@H]1C(=O)N[C@@H](CCCNC(=N)N)C(=O)CF [Compound 131],
27,700,CC(C)[C@H](NC(=O)c1ccc(OC(F)(F)F)cc1)C(=O)N1CCC[C@H]1C(=O)N[C@@H](CCCNC(=N)N)C(=O)CF [Compound 145],

Ki (MALT1) [nM],GI50 (OCI-LY3 [1]; Homo sapiens) [nM],SMILES,also measured
79,460,CC(C)[C@H](NC(=O)c1ccc(Br)cc1)C(=O)N1CCCC[C@H]1C(=O)N[C@@H](CCCNC(=N)N)C(=O)CF [Compound 144],
64,290,CC(C)[C@H](NC(=O)OCc1ccccc1)C(=O)N[C@@H](CO)C(=O)N[C@@H](CCCNC(=N)N)C(=O)CF [Compound 140],
53,290,CC(C)[C@H](NC(=O)OCc1ccccc1)C(=O)N1C[C@H](O)C[C@H]1C(=O)N[C@@H](CCCNC(=N)N)C(=O)CF [Compound 109] (Cbz-Val-[Hyp]-Arg-CH2F),Inhibition of RelB cleavage (Western blot) (RelB cleavage): inhibition of RelB cleavage
56,940,CC(C)[C@H](NC(=O)C1CCCCC1)C(=O)N1CCC[C@H]1C(=O)N[C@@H](CCCNC(=N)N)C(=O)CF [Compound 120],"Maximum killing effect (OCI-LY3 [2]; OCI-LY3, 20 μM): 81%; Maximum killing effect (TMD8; TMD8, 20 μM): 52%; Maximum killing effect (OCI-LY1; OCI-LY1, 20 μM): <0%"
,,"CN1CCCC(CN2c3ccccc3Sc3ccccc32)C1 (stereo not drawn) [mepazine, reference compound]","Maximum killing effect (OCI-LY3 [2]; OCI-LY3, 5 μM): 35%; Maximum killing effect (OCI-LY3 [2]; OCI-LY3, 20 μM): 97%; Maximum killing effect (TMD8; TMD8, 5 μM): 32%; Maximum killing effect (TMD8; TMD8, 20 μM): 99%; Maximum killing effect (OCI-LY1; OCI-LY1, 5 μM): 6%; Maximum killing effect (OCI-LY1; OCI-LY1, 20 μM): 82%"
182,1100,CC(C)C[C@H](NC(=O)c1ccc(Br)cc1)C(=O)N1CCC[C@H]1C(=O)N[C@@H](CCCNC(=N)N)C(=O)CF [Compound 185],
30,2440,CCC(C)[C@H](NC(=O)OCc1ccccc1)C(=O)N1CCC[C@H]1C(=O)N[C@@H](CCCNC(=N)N)C(=O)CF (stereo partly drawn) [Compound 180] (Cbz-[Ile(3ξ)]-Pro-Arg-CH2F),
139,4220,CC(C)[C@H](NC(=O)c1ccnc2ccccc12)C(=O)N1CCC[C@H]1C(=O)N[C@@H](CCCNC(=N)N)C(=O)CF [Compound 159],
100,16800,CC(C)[C@H](NC(=O)c1cnn(C)c1)C(=O)N1CCC[C@H]1C(=O)N[C@@H](CCCNC(=N)N)C(=O)CF [Compound 124],
,,"CC(C)[C@H](NC(=O)OCc1ccccc1)C(=O)N[C@@H](CCCNC(=N)N)C(=O)N1CCC[C@H]1C(=O)N[C@@H](CCCNC(=N)N)C(=O)CF [Z-VRPR-fmk, reference compound]","Maximum killing effect (OCI-LY3 [2]; OCI-LY3, 5 μM): 42%; Maximum killing effect (OCI-LY3 [2]; OCI-LY3, 20 μM): 62%; Maximum killing effect (TMD8; TMD8, 5 μM): 27%; Maximum killing effect (TMD8; TMD8, 20 μM): 67%; Maximum killing effect (OCI-LY1; OCI-LY1, 5 μM): <0%; Maximum killing effect (OCI-LY1; OCI-LY1, 20 μM): <0%"
49,1070,CC(C)[C@H](NC(=O)OCc1ccccc1)C(=O)N1C[C@@H](O)C[C@H]1C(=O)N[C@@H](CCCNC(=N)N)C(=O)CF [Compound 110] (Cbz-Val-[cisHyp]-Arg-CH2F),
40,850,Cc1cc(Br)ccc1C(=O)N[C@H](C(=O)N1CCC[C@H]1C(=O)N[C@@H](CCCNC(=N)N)C(=O)CF)C(C)C [Compound 183],
70,460,CC(C)[C@H](NC(=O)c1ccc(Br)cc1)C(=O)N1CCOC[C@H]1C(=O)N[C@@H](CCCNC(=N)N)C(=O)CF [Compound 175],
,,CC(C)C[C@H](NC(=O)OCc1ccccc1)C(=O)N(C)[C@H](C(=O)N1CCC[C@H]1C(=O)N[C@@H](CCCNC(=N)N)C(=O)CF)C(C)C [Compound 203] (Cbz-L[NMeV]PR-CH2F),"GI50 (OCI-LY3 [1]): 819 nM; Maximum killing effect (OCI-LY3 [2]; OCI-LY3, 20 μM): 79%; Maximum killing effect (TMD8; TMD8, 20 μM): 59%; Maximum killing effect (OCI-LY1; OCI-LY1, 20 μM): 3%; Inhibition of RelB cleavage (Western blot) (RelB cleavage): inhibition of RelB cleavage"
43,1880,CC(C)[C@H](NC(=O)CCc1ccccc1)C(=O)N1CCC[C@H]1C(=O)N[C@@H](CCCNC(=N)N)C(=O)CF [Compound 119] (Hydrocinnamoyl-Val-Pro-Arg-CH2F),
13,2340,CC(C)[C@H](NC(=O)c1ccc(F)cc1)C(=O)N1CCC[C@H]1C(=O)N[C@@H](CCCNC(=N)N)C(=O)CF [Compound 160],
43,1440,CC(C)(C)[C@H](NC(=O)OCc1ccccc1)C(=O)N1CCC[C@H]1C(=O)N[C@@H](CCCNC(=N)N)C(=O)CF [Compound 103] (Cbz-[Tle]-Pro-Arg-CH2F),
